In PubChem BioAssay (NCI):
Where “and” joins values, the source holds several entries; their conditions need not be identical. Equal values may be shown once.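 Method: 48-hour compound exposure of cells in 96-well plates, five concentrations, linear interpolation of endpoints. At the TGI there is no net growth.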

Assays:
Assay in all cases: NCI-60 cell line screen, 48 h
[1] = system: A498 renal
[2] = system: COLO 205 colon
[3] = system: HL-60(TB) leukemia
[4] = system: HOP-62 NSCLC
[5] = system: HOP-92 NSCLC
[6] = system: MDA-N
[7] = system: NCI/ADR-RES ovarian
[8] = system: PC-3 prostate
[9] = system: RXF 393 renal
[10] = system: SF-295 CNS
[11] = system: SN12C renal

Structure (SMILES)	TGI [1]	TGI [2]	TGI [3]	TGI [4]	TGI [5]	TGI [6]	TGI [7]	TGI [8]	TGI [9]	TGI [10]	TGI [11]
Oc1cc(Cl)cc2cccnc12	59.6 µM	26.1 µM	0.727 µM	> 100 µM	> 100 µM	> 100 µM	5.37 µM	> 100 µM	42.9 µM	15.9 µM	> 100 µM
Cc1cc(/N=C/c2ccc(N(C)C)cc2)n(-c2ccccc2)n1	84.5 µM	> 100 µM	> 100 µM	> 100 µM	> 100 µM	> 100 µM	> 100 µM	> 100 µM	> 100 µM	> 100 µM	> 100 µM
CC1(C)[C@@H]2CC[C@@]1(C)CN(CCC[N+](C)(C)C)C2	> 100 µM	> 100 µM	–	> 100 µM	> 100 µM	> 100 µM	> 100 µM	> 100 µM	> 100 µM	> 100 µM	> 100 µM
O=[N+]([O-])C(=C(Nc1cccc2cccnc12)Nc1cccc2cccnc12)C(Cl)=C(Cl)Cl	> 100 µM	> 100 µM	–	> 100 µM	–	> 69.7 µM	> 94 µM	> 100 µM	> 100 µM	> 100 µM	> 95.7 µM
CC(=NNC(=S)Nc1ccccc1)c1cccc(C(C)=NNC(=S)Nc2ccccc2)n1	> 80.8 µM	> 100 µM	> 20.6 µM	> 100 µM	> 50.2 µM	> 100 µM	> 100 µM	> 100 µM	36.6 µM	> 42 µM	> 100 µM
Cc1c(O)nc(-n2[nH]c3c(c2=O)CCCC3)[nH]c1=O	> 100 µM	> 100 µM	> 100 µM	–	> 100 µM	> 100 µM	> 100 µM	> 100 µM	> 100 µM	> 100 µM	> 100 µM
CCOS(C)(=O)=O	> 100 µM	> 100 µM	> 100 µM	–	30.7 µM	> 100 µM	> 100 µM	> 100 µM	> 100 µM	> 100 µM	> 100 µM
CCOC(=O)c1c(-c2ccc(O)c(OC)c2)c(C#N)c(=S)n(C2OC(CO)C(O)C(O)C2O)c1-c1ccccc1 (stereo not given)	> 100 µM	> 100 µM	> 100 µM	> 100 µM	> 100 µM	> 100 µM	> 100 µM	> 100 µM	> 100 µM	> 100 µM	> 100 µM
Cn1c(SCc2ccc(F)cc2)nnc1C12CC3CC(CC(C3)C1)C2	48.4 µM	31.6 µM	28.6 µM	> 100 µM	77.1 µM	> 100 µM	> 100 µM	> 100 µM	> 100 µM	> 100 µM	> 100 µM
CNc1cc2c(c3ccccc13)C(CCl)CN2C(=O)c1cc2cc(OC)c(OC)c(OC)c2[nH]1 (stereo not given)	0.00762 µM	0.0114 µM	0.000667 µM	0.0319 µM	0.0466 µM	0.00856 µM	0.0156 µM	0.0223 µM and 0.116 µM	–	–	0.00628 µM and 0.0118 µM
O=C1c2cc(-c3ccccc3)cnc2S(=O)(=O)N1c1ccc(Br)cc1	> 100 µM	> 100 µM	> 100 µM	32.2 µM	72.1 µM	> 100 µM	> 100 µM	> 100 µM	–	38.5 µM	> 100 µM
CC(C)(C)[Si](C)(C)OCC1OC(n2ccc(=O)[nH]c2=O)C(O[Si](C)(C)C(C)(C)C)/C1=C/C#N (stereo not given)	76.6 µM	9.83 µM	–	> 100 µM	> 68.8 µM	> 85.7 µM	> 42.3 µM	> 100 µM	11.9 µM	> 81.4 µM	32.5 µM
N[C@@H](Cc1ccccc1)C(=O)N1CCC[C@@H]1P(=O)(Oc1ccccc1)Oc1ccccc1	> 100 µM	> 100 µM	> 100 µM	> 100 µM	> 100 µM	> 100 µM	> 100 µM	> 100 µM	> 100 µM	> 100 µM	> 100 µM
CSC1=N/C(=C\c2ccc(C)cc2)C(=O)N1CN1CCCCC1	> 100 µM	> 100 µM	–	> 100 µM	> 100 µM	> 100 µM	> 100 µM	> 100 µM	–	> 100 µM	> 100 µM
CCOC(=O)c1cccc(N=Nc2nc[nH]c2/C=C/C(=O)OC)c1	66.8 µM	> 100 µM	53.4 µM	> 100 µM	> 100 µM	> 100 µM	> 100 µM	> 100 µM	> 100 µM	> 100 µM	68.1 µM
CCNC(=S)NNC(=O)C12CC3CC(CC(C3)C1)C2	> 100 µM	> 100 µM	> 100 µM	> 100 µM	–	> 100 µM	> 100 µM	> 100 µM	> 100 µM	> 100 µM	> 100 µM
Cc1nc(C)c(N2CCN([N+](=O)[O-])CC2)c(=O)[nH]1	> 100 µM	> 100 µM	> 100 µM	> 100 µM	> 100 µM	> 100 µM	> 100 µM	> 100 µM	> 100 µM	> 100 µM	> 100 µM
O=C(/C=C/c1ccccc1)Oc1ccc(C(=O)/C=C/c2ccccc2)cc1	–	21 µM	8.2 µM	21.6 µM	39 µM	12.6 µM	21.9 µM	> 64.9 µM	> 60.6 µM	24.4 µM	15.2 µM
O=C(O)[C@H]1CCCN1CP(=O)(O)CN1CCC[C@@H]1C(=O)O	–	> 100 µM	> 100 µM	> 100 µM	> 100 µM	> 100 µM	> 100 µM	> 100 µM	> 100 µM	> 100 µM	> 100 µM
CC(C)SC(=S)Sc1c(Cl)c(Cl)nc(Cl)c1Cl	31.5 µM	24.7 µM	5.61 µM	18.4 µM	21.4 µM	11.1 µM	61.2 µM	16 µM	9.17 µM	30.5 µM	27.6 µM
O=C1c2ccccc2C(=O)N1n1c(Cc2ccc([N+](=O)[O-])cc2)n[nH]c1=O	> 100 µM	–	–	> 100 µM	> 100 µM	> 100 µM	> 100 µM	> 100 µM	> 100 µM	> 100 µM	> 100 µM
